According to US20150056166A1, “FLAVONE DERIVATIVES AND THEIR USE” (Twincore GmbH, priority 2012, published 2015):
“Also recorded” adds a separate entry of the source.

Tests used:
JcR-2a virus = experiment: Chloroquine alone and with BJ486K, JcR-2a virus in Huh7.5 F-Luc cells; assay type: cell-based, HCV; conditions: chloroquine alone
Method: Result from one experiment with triplicate measurements is given. (B) Combined effects of CQ on BJ486K activity (and vice versa) were analyzed by inoculation of Huh7.5 F-Luc cells with JcR-2a virus in the presence of given drugs and determination of luciferase activity 72 h later. Results from 3 independent experiments are given.

Huh7.5 F-Luc cells = experiment: Cytotoxicity of chloroquine (FIG. 11A); conditions: at the used concentrations
[1] = tested on: Luc-Jc1/E2/G451R reporter viruses; experiment: Resistance test, Luc-Jc1 versus Luc-Jc1/E2/G451R reporter virus; assay type: cell-based, HCV; conditions: Huh7-Lunet/CD81 cells, luciferase 72 h
Method: FIG. 4: BJ486K is not affected by viral resistance towards a SR-BI-targeting compound, inhibits HCV of different genotypes and prevents infection of primary human hepatocytes Huh7-Lunet/CD81 cells were inoculated with Luc-Jc1 or Luc-Jc1/E2/G451R reporter viruses in the presence of increasing doses of (A) ITX 5061 or (B) BJ486K. Cells were lysed 72 h later. Luciferase activity was determined and is expressed relative to control infections conducted in the presence of DMSO. Mean values of four independent experiments each with quadruplicate measurements including the standard deviation are shown. (C) Huh7-Lunet/CD81 cells were inoculated with genotype 1a, 1b, 2b, 3a, 4a, 5a and 6a chimeric reporter viruses in the presence of increasing doses of BJ486K. Luciferase activity was determined 72 h later and is expressed relative to infections in the presence of DMSO. Mean values of three independent experiments, each with triplicate measurements, are given. (D) Primary human hepatocytes were inoculated with Con1/C3 in the presence of DMSO or increasing concentrations of BJ486K. The inhibition of HCV infection was assessed by focus-formation assay and is expressed as % inhibition relative to DMSO-treated cells. Mean values of duplicate measurements including the error range are given. […]

[2] = UV-visible spectrophotometric titration by MgCl2; assay type: physicochemical; conditions: high excess of Mg(II); CH3CN/H2O (1:1 by volume)
Method: FIG. 17: (A) UV-visible spectrophotometric titration of BJ486K (newly re-prepared as XM148) by MgCl2 and (B) absorption electronic spectra of the flavone BJ486K and its magnesium(II) complex BJ486K-MgCl2. Solvent: CH3CN/H2O (1:1 by volume); T=25.0° C.; l=1 cm; [BJ486K]tot=7.63×10^−5 M; (1) [MgCl2]tot/[BJ486K]tot=0; (2) [MgCl2]tot/[BJ486K]tot=185.8. To ensure solubilisation of both the flavone BJ486K (newly re-prepared as XM148) and MgCl2, a mixed solvent made of 50% of water and 50% of CH3CN was used. A stock solution of XM148 ([…] in 10 mL of argon saturated CH3CN, [XM148]tot=9.54×10^−3 M) was prepared. 160 μL of the flavone stock solution in CH3CN was diluted in 1 mL and 840 μL of Ar-saturated water and CH3CN, respectively. The absorption spectrophotometric titration (200-800 nm) was carried out by successive addition of aliquots (10 μL) of a stock solution of MgCl2 freshly prepared in water (337.6 mg in 5 mL, [MgCl2]tot=7.09×10^−3 M). […]
FIG. 18: (A) UV-visible spectrophotometric titration of XM131 (final precursor B, Scheme 2) by MgCl2. […] Absorption spectra (200-800 nm) was recorded after each addition of aliquots (10 μL) of a stock solution of MgCl2 freshly prepared in water (337.6 mg in 5 mL, [MgCl2]tot=7.09×10^−3 M). […]

Jc1 = experiment: HCV virus assembly/release, intra- and extracellular core protein after Jc1 RNA transfection; assay type: cell-based; conditions: 48 h after transfection, drugs added 4 h after transfection
Method: (A) Huh7-Lunet/CD81 cells were transfected with the subgenomic luciferase replicon depicted at the top. Drugs were added 4 h post transfection and the level of HCV RNA translation and RNA replication was quantified by luciferase assays 72 h post transfection. Mean values of three independent experiments each with quadruplicate measurements including the standard deviation are shown. (B) Cells were transfected with the Jc1 chimera depicted above and drugs were added 4 h later. HCV virus release in the presence or absence of given compounds was determined by quantification of intracellular and extracellular core protein levels using a core-specific ELISA. Mean values of three independent experiments with single measurements including the error range are given. (C) Huh7-Lunet/CD81 cells were inoculated with Luc-Jc1 reporter viruses prepared in the absence of drugs. BJ486K was added to the cells only prior to inoculation (black), only during inoculation (grey) or selectively directly after inoculation (white) as schematically depicted at the top. Infectivity was determined 72 h later by luciferase assays and compared to DMSO-treated controls. Mean values of three independent experiments each with quadruplicate measurements including the standard deviation are shown.
Huh7-Lunet/CD81 cells were transfected with Jc1 RNA and seeded on a 6-well plate. Compounds were added 4 h later. At 48 h after transfection, cell culture supernatant was harvested and used for measuring the extracellular core amount. Cells were washed once with PBS, scraped and centrifuged for 5 min at 1000×g. Cell pellets were resuspended in 500 μl fresh culture fluid and subjected to three cycles of freeze and thaw using liquid nitrogen and a 37° C. thermo block. Samples were than centrifuged at 10,000×g for 10 min to remove cell debris and the core amount was measured (intracellular core protein) using the […] […]
To determine whether BJ486K affects virus assembly or release we transfected Huh7-Lunet/CD81 cells with Jc1 RNA and quantified intra- and extracellular levels of core protein 48 h after transfection (FIG. 2B).

JcR-2a virus particles = experiment: Antiviral activity against early steps of HCV cell entry, synchronized JcR-2a infection (FIG. 3); assay type: cell-based; conditions: heparin 50 μg/ml, JS-81 2 μg/ml; inhibitor present 4 h
Method: FIG. 3: BJ486K inhibits cell entry post virus attachment. The design of the JcR-2a reporter virus construct is given at the top. Huh7-Lunet/CD81 cells were inoculated with concentrated JcR-2a particles at 4° C. for 60 minutes. Subsequently, unbound virus particles were washed away and cells were shifted to 37° C. to permit synchronized cell entry. According to the 8 experimental protocols depicted in the middle, various cell entry inhibitors including heparin (50 μg/ml), ITX5061 (10 μM), CD81-specific antibody JS-81 (2 μg/ml) and BJ486K (20 μM) were either present during inoculation (protocol 1) or were added at different time points after inoculation (protocols 2 to 8). In each case, inhibitor was present for 4 h (dashed line) and was then washed away. Efficiency of cell entry was determined 48 h post inoculation by determination of luciferase activity and is expressed relative to control infections conducted in the presence of solvent alone (DMSO). Mean values of three independent experiments each with quadruplicate measurements including the standard deviation are shown.
JcR-2a virus particles were incubated with Huh7-Lunet/CD81 cells seeded as described above for 1 h at 4° C. to synchronize cell entry. Various inhibitors including 50 μg/ml heparin (Sigma-Aldrich), CD81-specific antibody JS-81 (2 μg/ml; Becton Dickinson), ITX 5061 (10 μM) or BJ486K (20 μM), were added during virus inoculation (protocol 1) or at indicated time points after virus inoculation (protocol 2-8). After 4 h inhibitor treatment, medium was changed to fresh culture fluid without inhibitors and the cells were lysed 48 h after inoculation as described above. Efficiency of infection was determined by luciferase assay using a tube luminometer (Lumat LB9507, Berthold, Freiburg, Germany).
To resolve which step of HCV cell entry is inhibited by BJ486K, we assessed its antiviral activity when administered at different time points during the early phase of infection. To this end, Huh7-Lunet/CD81 cells were inoculated for one hour at 4° C. with a reporter virus prepared in the absence of drugs. […]

CCN(CC)CCCC(C)Nc1ccnc2cc(Cl)ccc12 (stereo not drawn) [Chloroquine, chloroquine]
anti-HCV effect (JcR-2a virus): dose-dependent anti-HCV effect
anti-HCV effect (JcR-2a virus; listed as chloroquine): dose-dependent inhibition of HCV
cytotoxicity (Huh7.5 F-Luc cells): no cytotoxicity detectable
cytotoxicity (Huh7.5 F-Luc cells; listed as chloroquine): no cytotoxicity

COc1c(NC(=O)C(=O)c2ccc(OCCN3CCOCC3)c3ccccc23)cc(C(C)(C)C)cc1NS(C)(=O)=O [ITX5061, reference compound]
antiviral activity against G451R mutant compared with wild type [1]: resistant

COc1ccc(-c2cc(=O)c3c(OC)c(O)c(OC)cc3o2)cc1 [XM131, 6-Hydroxy-5,7-dimethoxy-2-(4-methoxy-phenyl)-chromen-4-one]
Mg(II) complexation [2]: no absorption variation can be observed; also recorded: no Mg(II) complex is observed

O=C1C[C@@H](c2ccc(O)cc2)Oc2cc(O)cc(O)c21 [naringenin]
reduction of extracellular levels of core protein (Jc1): ca. 5 fold

C=C[C@H]1C[N@@]2CC[C@H]1C[C@@H]2[C@@H](O)c1ccnc2ccc(OC)cc12 [quinidine]
reduction of extracellular levels of core protein (Jc1): more than 100 fold

heparin [reference compound]
inhibition of HCV entry by time of addition, in words (JcR-2a virus particles): only interfered with HCV infection when present already during inoculation
